Laboratory results reported in EPA's ToxValDB 9.5 (doi:10.2903/j.efsa.2013.2923).

Tests used:
Apis mellifera = conditions: acute, mortality
Rattus norvegicus = conditions: reproduction developmental; mortality
Neovison vison = conditions: reproduction developmental; reproduction
Oryctolagus sp. = conditions: reproduction developmental; mortality
Mus musculus = conditions: acute; oral; mortality
Daphnia magna = conditions: chronic/long-term
Pontoscolex corethrurus = conditions: acute; mortality
Oncorhynchus mykiss = conditions: acute; mortality
Scenedesmus quadricauda = conditions: acute

[I-].[K+] [Potassium iodide]
LD50 (Bird; acute, oral, unspecified, mortality): > 1180 mg/kg-day | NOEC (Bird; reproductive, reproduction): 0.69 mg/kg-day | LC50 (Bird; short-term, oral, feed, mortality): > 258 mg/kg-day | LD50 (Apis mellifera; dermal): > 0.78 µg/piece | LD50 (Apis mellifera; oral, unspecified): > 2.4 µg/piece | NOAEL (Rattus norvegicus): 0.5 mg/kg-day | NOAEL (Neovison vison): 0.5 mg/kg-day | NOAEL (Oryctolagus sp.): 0.5 mg/kg-day | LD50 (Mus musculus): 1860 mg/kg | NOEC (Daphnia magna): 0.25 mg/L | LC50 (Pontoscolex corethrurus): > 12.5 mg/kg | LC50 (Oncorhynchus mykiss): 2190 µg/mL | NOEC (Scenedesmus quadricauda): 1310 mg/L
